Data published in patent US20100048682A1, “INHIBITING DNA POLYMERASE BETA TO ENHANCE EFFICACY OF ANTICANCER AGENTS” (UNIVERSITY OF PITTSBURGH - OF THE COMMONWEALTH SYSTEM OF …, priority 2005, published 2010).

Experiments:
pol-β null cells (88TAg) = experiment: Growth inhibition assay (modified MTT, MTS); type: cell-based, mouse; conditions: MTS viability 48 hr after 1-2 hr exposure
Method: (§1) Culture Conditions and Cell Cytotoxicity Assays. Transformed MEFs were cultured at 37° C. in a humidified incubator with 10% CO2 in DMEM supplemented with 10% fetal bovine serum, penicillin (50 units/ml), streptomycin (50 μg/ml) and Glutamax (4 mM). Human embryonic kidney cells (293T) were cultured similarly in DMEM supplemented with 10% fetal bovine serum, penicillin (50 units/ml), streptomycin (50 μg/ml) and Glutamine (4 mM). TMZ, MMS and MMC induced cytotoxicity was determined by growth inhibition assays. Briefly, cells were seeded in 96-well dishes at 1250 cells/well. After 24 hours, cells (quadruplicate wells) were exposed to serial dilutions of damaging agent in growth media for 1-2 hours (or as indicated in the text) at 37° C. Drug-containing medium was replaced with fresh medium and the plates were incubated at 37° C. for 48 hours at which point the total cell number was determined by a modified MTT assay (MTS; Promega). Metabolically active cells were quantified by the bioreduction of the MTS tetrazolium compound by recording absorbance at 490 nm using a microplate reader. Results were calculated from the average of four separate experiments and are reported as the % of treated cells relative to the cells in control wells (% Control).

γ-H2AX = γ-H2AX immunoblotting; type: cell-based, mouse; conditions: MMS 1 hr or TMZ 2 hr exposure
Method: For γ-H2AX immunoblotting, protein was prepared as follows: briefly, 6×10^5 cells were seeded into 150 mm dishes and incubated for 24 hours at 10% CO2 at 37° C. Cells were treated with MMS and TMZ for 1 or 2 hr respectively, and whole cells were scraped from the plates in 1×PBS, washed, and immediately placed on dry ice. Thawed pellets were re-suspended in a 1:1 ratio of RIPA buffer and Laemmli buffer. Samples were boiled for 5 minutes and protein from an equal cell number was added to each well. Protein was separated by electrophoresis in a 12% SDS-polyacrylamide gel and electro-transferred to a […] nitrocellulose membrane (Trans-Blot, Bio-Rad). Membranes were blocked for 20 minutes in a 3% dried milk/TBS solution at room temperature and incubated with 0.5-1 μg/ml of anti-phospho-H2AX (Serine 139) (Upstate) prepared in TBS/3% dried milk and 0.1% Tween20 over night at 4° C. Membranes were washed twice with water and incubated with horseradish peroxidase (HRP)-conjugated secondary antibody (goat anti-rabbit HRP; Bio-Rad) at room temperature for 1.5 hour. Following a series of washes with water and TBS, HRP activity was detected using the Super Signal West Femto reagent (Pierce). Each membrane was re-probed with anti-PCNA to correct for differences in protein loading, and densitometry was used to quantitate with Quantity One 1-D analysis software (BioRad).

Wt cells (92TAg) = experiment: TMZ growth inhibition assay (modified MTT, MTS); type: cell-based; conditions: Mus musculus, TMZ exposure 48 hr
Method: as §1

[1] = test system: Wt pol-β knockdown cells over-expressing hAag (wt hAag.2/polβ-KD.4, wt hAag.3/polβ-KD.4); experiment: TMZ growth inhibition assay (modified MTT, MTS); type: cell-based, mouse; conditions: for IC50: Mus musculus
Excerpt: Cell Lines and Transfection Conditions. Transformed MEF cell lines (92TAg, Wt; 88TAg, pol-β null; 308TAg, Aag null and 283TAg, pol-β null/Aag null) have been described previously and are available from the ATCC. 293T cells were a gift from J. O'Bryan (NIEHS, NIH). Primary cultures of pol-λ, null MEFs were a kind gift from C.A. Reynaud (Faculte de Medecine Necker-Enfants Malades, Paris, France). The pol-ι null MEFs were derived from C129SvJ mice as described previously and identified by PCR to confirm the pol-ι null mutation. These were immortalized by SV40 large T-antigen (370TAg, pol-λ, null; 369TAg, pol-ι null) as described previously. Human Aag over-expressing cell lines were prepared as follows: briefly, 1.5×10^5 cells were seeded into 60 mm dishes and incubated for 24-30 hours at 10% CO2 at 37° C. The Aag expression plasmid (pRS1422) was transfected using FuGene 6 Transfection Reagent (Roche Diagnostic Corp) according to the manufacturer's instructions. Stable cell lines were selected in G418 (600 μg/ml) for 2 weeks, individual clones were amplified and 20 μg of nuclear extract was analyzed by immunoblotting for the expression of human Aag protein and then re-probed for expression of pol-β and PCNA.
Transfection of the pSuper siRNA plasmids was completed as follows: Briefly, 1.5×10^5 cells were seeded into 60 mm dishes and incubated for 24-30 hours at 10% CO2 at 37° C. […] For transient transfections, cells were lysed 24 hours post transfection by boiling in Laemmli buffer and analyzed by immunoblotting for the expression of the V5-pol-β transgene using anti-V5 (Invitrogen). […] Individual clones were amplified and 20 μg of nuclear extract was analyzed by immunoblotting for the expression of endogenous pol-β protein using the Nucbuster nuclear protein extract reagent (Novagen) and then re-probed for expression of PCNA as a loading control.
Culture Conditions and Cell Cytotoxicity Assays. […] TMZ, MMS and MMC induced cytotoxicity was determined by growth inhibition assays. […]

[2] = test system: MDA-MB-231 cells with Mpg/Aag over-expression combined with pol-β knockdown; experiment: Temozolomide growth inhibition assay (MTS); type: cell-based, human; conditions: TMZ 48 hours; compared to the parental MDA-MB-231 cells
Method: Culture Conditions and Cell Cytotoxicity Assays. Human Mpg over-expression, human pol-β knockdown and human pol-β over-expressing MDA-MB-231 breast cancer cell lines were cultured at 37° C. in a humidified incubator with 5% CO2 in RPMI 1640 (Cambrex Biosciences Group, Walkersville, Md.) supplemented with 10% heat inactivated fetal bovine serum and gentamicin (10 μg/ml). Temozolomide induced cytotoxicity was determined by growth inhibition assays. Briefly, cells were seeded in 96-well dishes at 2000 cells/well. After 24 hours, cells (quadruplicate wells) were exposed to serial dilutions of Temozolomide in growth media at 37° C. for 48 hours at which point the total cell number was determined by a modified 3-(4,5-dimethylthiazol-2-yl)-2,5-diphenyltetrazolium bromide (MTT) assay (MTS; Promega Madison, Wis.) (Cory et al., Cancer Communications; 3(7):207-12 (1991)). Metabolically active cells were quantified by the bioreduction of the MTS tetrazolium compound by recording absorbance at 490 nm using a microplate reader. Results were calculated from the average of four separate experiments and are reported as the % of treated cells relative to the cells in control wells (% Control).

CO[C@@]12[C@H](COC(N)=O)C3=C(C(=O)C(C)=C(N)C3=O)N1C[C@@H]1N[C@@H]12 [MMC, Mitomycin C]
sensitivity of pol-β null cells relative to Wt and other null cells (pol-β null cells (88TAg)): equally sensitive

COS(C)(=O)=O [MMS, Methyl methanesulfonate]
γ-H2AX expression in pol-β deficient cells as compared to Wt cells (γ-H2AX): clear increase

Cn1nnc2c(C(N)=O)ncn2c1=O [TMZ, temozolomide]
IC50 (Wt cells (92TAg)): 2600 µM
IC50 ([1]; TMZ exposure 2 hr, viable cells after 48 hr, wt hAag.2/polβ-KD.4 and wt hAag.3/polβ-KD.4 cells): 1250 µM
IC50 ([1]; TMZ exposure 48 hr, wt hAag.3/Polβ-KD.4 cells): ~700 µM
TMZ efficacy improved ([1]; TMZ exposure 48 hr, hAag over-expression plus pol-β knockdown compared with Wt cells): ~4 fold
decrease in IC50 [2]: ~10 fold
